According to patent US20200206350A1, “COMPOUNDS FOR REDUCING THE VISCOSITY OF BIOLOGICAL FORMULATIONS” (Merck Sharp & Dohme Corp., priority 2017, published 2020):
Structures can show the parent of a compound that is named as a salt. Marks after values point to notes of the source that are not given here.

Legend:
pembrolizumab = assay: Viscosity of pembrolizumab test formulations (mVROC viscometer); format: physicochemical; details: 10 mM histidine buffer, 200 mg/mL pembrolizumab, 0.2 M excipient, pH 5.5
Procedure: Pembrolizumab formulations comprised the following: 10 mM histidine buffer, pembrolizumab at a concentration of 200 mg/mL, and the test excipient (pegylated excipient of the invention, as described herein) at a concentration of 200 mM, pH adjusted to pH 5.5. Pembrolizumab formulations without excipients consisted of 200 mg/mL pembrolizumab in 10 mM histidine buffer at pH 5.5. The 10 mM histidine buffer used with pembrolizumab formulations consisted of consists of 10 mM L-histidine in sterile water, pH adjusted to 5.5.
(§1) All viscosity measurements were conducted using the mVROC (Viscometer/Rheometer-On-A-Chip, RheoSense, Inc., San Ramon, Calif.). The test formulations were placed into a 250 μl Hamilton air-tight syringe, which was then placed inside the syringe jacket of the mVROC. The instrument injected formulation into the chip for viscosity measurement at an appropriate flow rate. Most measurements were done in duplicates.

Antibody B = assay: Viscosity of Antibody B test formulations (mVROC viscometer); format: physicochemical; details: 10 mM histidine buffer, 177 mg/mL Antibody B, 0.2 M excipient, pH 6.0
Procedure: Antibody B formulations comprised the following: 10 mM histidine buffer, Antibody B at a concentration of 177 mg/mL and the test excipient (pegylated excipient of the invention, as described herein) at a concentration of 200 mM, pH adjusted to pH 6.0. The Antibody B formulation without excipients consisted of 177 mg/mL Antibody B in 10 mM histidine buffer at pH 6.0. The 10 mM histidine buffer used with Antibody B consisted of 10 mM L-histidine in sterile water, pH adjusted to 6.0.
as §1

Row | Structure (SMILES) | Viscosity 1 (pembrolizumab) | Viscosity 2 (pembrolizumab) | Viscosity Average (pembrolizumab) | Viscosity 1 (Antibody B) [mPa-s] | Viscosity 2 (Antibody B) [mPa-s] | Viscosity Average (Antibody B) [mPa-s]
1 | COCCOCCOCC(=O)N[C@@H](Cc1c[nH]cn1)C(=O)O [Example 1, (S)-12-((1H-imidazol-4-yl)methyl)-10-oxo-2,5,8-trioxa-11-azatridecan-13-oic acid] | 23.12 mPa-s | 23.27 mPa-s | 23.20 mPa-s |  |  | 
2 | COCCOCC(=O)N[C@@H](Cc1c[nH]cn1)C(=O)O [Example 13, (2-(2-methoxyethoxy)acetyl)-L-histidine] | 20.05 mPa-s | 20.09 mPa-s | 20.07 mPa-s |  |  | 
3 | N=C(N)NCCC[C@H](N)C(=O)O [Arginine, reference compound] | 30.25 mPa-s | 30.55 mPa-s | 30.40 mPa-s |  |  | 
4 | COCCOCCN[C@@H](CCCNC(=N)N)C(=O)O [Example 14, (S)-5-guanidino-2-((2-(2-methoxyethoxy)ethyl)amino)pentanoic acid] | 24.59 mPa-s | 24.76 mPa-s | 24.68 mPa-s |  |  | 
5 | COCCOCCN(CCOCCOC)[C@@H](Cc1c[nH]cn1)C(=O)O [Example 6, (S)-2-(bis(2-(2-methoxyethoxy)ethyl)amino)-3-(1H-imidazol-4-yl)propanoic acid] | 17.57* *Ave- rage of 3 values mPa-s | 18.10* *Ave- rage of 3 values mPa-s | 17.83** **Ave- rage of 6 values mPa-s |  |  | 
6 | COCCOCCOCC(=O)N[C@@H](CCCNC(=N)N)C(=O)O [Example 2, (S)-12-(3-guanidinopropyl)-10-oxo-2,5,8-trioxa-11-azatridecan-13-oic acid] | 22.05 mPa-s | 22.24 mPa-s | 22.15 mPa-s |  |  | 
7 | COCCOCCOCCN[C@@H](Cc1c[nH]cn1)C(=O)O [Example 19, (2-(2-(2-methoxyethoxy)ethoxy)ethyl)-L-histidine] | 26.58 mPa-s | 26.83 mPa-s | 26.71 mPa-s |  |  | 
8 | COCCOCCN(CCOCCOC)[C@@H](CCCNC(=N)N)C(=O)O [Example 8, (S)-2-(bis(2-(2-methoxyethoxy)ethyl)amino)-5-guanidinopentanoic acid dihydrochloride] |  |  |  | 22.25 | 22.19 | 22.22
9 | N=C(N)NCCC[C@@H](C(=O)O)N(CCOCCO)CCOCCO [Example 20, (S)-2-(bis(2-(2-hydroxyethoxy)ethyl)amino)-5-guanidinopentanoic acid] | 25.28 mPa-s | 25.42 mPa-s | 25.35 mPa-s |  |  | 
10 | COCCOCC(=O)N[C@@H](CCCCN)C(=O)O [Example 10, (S)-6-amino-2-(2-(2-methoxyethoxy)acetamido)hexanoic acid] | 26.39 mPa-s | 26.35 mPa-s | 26.37 mPa-s |  |  | 
11 | COCCOCCOCCOCCN[C@@H](Cc1c[nH]cn1)C(=O)O [Example 18, (2,5,8,11-tetraoxatridecan-13-yl)-L-histidine] | 22.82 mPa-s | 22.47 mPa-s | 22.65 mPa-s |  |  | 
12 | COCCOCCN(C(=O)COCCOC)[C@@H](Cc1c[nH]cn1)C(=O)O [Example 4, (S)-3-(1H-imidazol-4-yl)-2-(2-(2-methoxyethoxy)-N-(2-(2-methoxyethoxy)ethyl)acetamido)propanoic acid] | 19.64 mPa-s | 19.28 mPa-s | 19.46 mPa-s |  |  | 
13 | COCCOCCN(CCOCCOC)[C@@H](CCCNC(=N)N)C(=O)O [Example 5, (S)-2-(bis(2-(2-methoxyethoxy)ethyl)amino)-5-guanidinopentanoic acid] | 18.02* *Ave- rage of 4 values mPa-s | 18.37* *Ave- rage of 4 values mPa-s | 18.19** **Ave- rage of 8 values mPa-s |  |  | 
14 | COCCOCCOCCOCC(=O)N[C@@H](Cc1c[nH]cn1)C(=O)O [Example 16] | 23.33 mPa-s | 23.54 mPa-s | 23.44 mPa-s |  |  | 
15 | COCCOCCN(C(=O)COCCOC)[C@@H](CCCNC(=N)N)C(=O)O [Example 3, (S)-5-guanidino-2-(2-(2-methoxyethoxy)-N-(2-(2-methoxyethoxy)ethyl)acetamido)pentanoic acid] | 21.12 mPa-s | 21.18 mPa-s | 21.15 mPa-s |  |  | 
16 | N[C@@H](Cc1c[nH]cn1)C(=O)O [Histidine, reference compound] | 35.79 mPa-s | 35.32 mPa-s | 35.56 mPa-s |  |  | 
17 | COCCOCCN[C@@H](Cc1c[nH]cn1)C(=O)O [Example 12, (S)-3-(1H-imidazol-4-yl)-2-((2-(2-methoxyethoxy)ethyl)amino)propanoic acid] | 22.19 mPa-s | 22.33 mPa-s | 22.26 mPa-s |  |  | 
18 | O=C(O)[C@H](Cc1c[nH]cn1)N(CCOCCO)CCOCCO [Example 21, (S)-2-(bis(2-(2-hydroxyethoxy)ethyl)amino)-3-(1H-imidazol-4-yl)propanoic acid] | 23.19 mPa-s | 23.16 mPa-s | 23.18 mPa-s |  |  | 
19 | COCCOCC(=O)N[C@@H](Cc1ccccc1)C(=O)O [Example 22] | 17.77 mPa-s | 17.63 mPa-s | 17.70 mPa-s |  |  | 
20 | COCCOCCN(CCOCCOC)[C@@H](CCCCN)C(=O)O [Example 11, (S)-6-amino-2-(bis(2-(2-methoxyethoxy)ethyl)amino)hexanoic acid] | 21.36 mPa-s | 21.50 mPa-s | 21.43 mPa-s |  |  | 
21 | COCCOCCOCCOCC(=O)N[C@@H](CCCNC(=N)N)C(=O)O [Example 17, (2,5,8,11-tetraoxatridecan-13-oyl)-L-arginine] | 23.09 mPa-s | 22.82 mPa-s | 22.96 mPa-s |  |  | 
22 | COCCOCC(=O)N[C@@H](CCCNC(=N)N)C(=O)O [Example 15, (2-(2-methoxyethoxy)acetyl)-L-arginine dihydrochloride] | 18.67 mPa-s |  | 18.67 mPa-s |  |  | 
23 | COCCOCCN(CCOCCOC)[C@@H](Cc1c[nH]cn1)C(=O)O [Example 9, (S)-2-(bis(2-(2-methoxyethoxy)ethyl)amino)-3-(1H-imidazol-4-yl)propanoic acid dihydrochloride] |  |  |  | 26.55 | 26.67 | 26.61
24 | COCCOCC(=O)N[C@@H](Cc1ccc(O)cc1)C(=O)O [Example 23, (2-(2-methoxyethoxy)acetyl)-L-tyrosine] | 20.15 mPa-s | 20.09 mPa-s | 20.12 mPa-s |  |  | 
